Results as given in article PMC12124432, “Antimicrobial Peptide‐Peptoid Macrocycles from the Polymyxin B2 Chemical Space” (Angewandte Chemie (International Ed. in English), 2025).
Values after ≈ are worked out from the molar mass of the structure shown. Bridge positions count the residues as written; N and C are the ends. Square brackets hold non-standard residues; d marks the D form. Peptide text beside a SMILES is read from it. * marks the point of attachment. Propanoyl(3-cHex) = O=C(CCC1CCCCC1)*; Gly(NCH2CH2Ph) = O=C(O)CNCCc1ccccc1; Heptanoyl(6-Me) = CC(C)CCCCC(=O)*; N(iPr)Gly = CC(C)NCC(=O)O; Nphe = O=C(O)CNCc1ccccc1; Dab = NCC[C@H](N)C(=O)O; Nlys = NCCCCNCC(=O)O

Experiments:
[1] = test system: E. coli W3110; assay type: cell-based, Escherichia coli; details: W3110, pH 8.5
Procedure: (§1) Minimal Inhibitory Concentration (MIC)
(§2) Antimicrobial activity was assayed for all the peptide-peptoids against P. aeruginosa PAO1, K. pneumoniae NCTC418, E. coli W3110, A. baumannii ATCC 19606, methicillin-resistant S. aureus COL (MRSA) and for selected peptides on P. aeruginosa PA14, as well as the clinical isolates ZEM-1A and ZEM9A, K. pneumoniae OXA-48, Enterobacter cloacae, Stenotrophomonas maltophilia and Staphylococus epidermidis. To determine the Minimal Inhibitory Concentration (MIC), Broth Microdilution method was used. A colony of bacteria was picked and grown in LB medium overnight at 37 °C. The next day, the culture was then regrown in LB medium to log phase (OD600 = 0.6 to 0.8), which lasted approximately 4 hours, and diluted to an OD600 of 0.022 in the desired medium (full MH or 12.5% MH).
(§3) The compounds were prepared as stock solutions of 2 mg/mL in sterilized MilliQ deionized water and then diluted in the desired media (full MH or 12.5% MH) to reach the first concentration tested (32 μg/mL). The compounds were added to the first well of a 96-well sterile, round bottom microtiter plates in polystyrene (TPP®, untreated) and diluted serially by ½ in the desired media (full MH or 12.5% MH), to a final volume of 150 µL/well. To each well was finally added 4 µL of the diluted bacterial suspension (see above), corresponding to approximately 5×10^5 CFU. For each test, two columns of the plate were kept for sterility control (medium only), growth control (medium with bacterial inoculum, no compound). The positive control, Polymyxin B (starting with a concentration of 16 µg/mL) in MH medium with bacterial inoculums, was introduced in the two first lines of the plate. The plates were incubated at 37 °C for ca. 18 hours under static conditions. 15 µL of 3-(4,5-dimethylthiazol-2-yl)-2,5-diphenyltetrazolium bromide (MTT)[7] (1 mg/mL in sterilized MilliQ deionized water) were added to each well and the plates were incubated for 20-30 minutes at room temperature. The […]
(§4) minimal inhibitory concentration (MIC) was defined as the lowest concentration of the compound that inhibits the visible growth of the tested bacteria (yellow) with the unaided eye.
(§5) Minimal Hemolytic Concentration (MHC) […]
(§6) 11. Minimal inhibitory in presence of salt
The same procedure as for the antibacterial activity measurements by minimal inhibitory concentration assay (MIC) was applied. The media, 12.5% Mueller-Hinton broth was this time supplemented with different salt concentrations (0, 100, 200 300 mM NaCl). […]
(§7) All data, in μg/mL, measured against P. aeruginosa PAO1, with or without addition of salt (NaCl). The values were measured in dilute medium (12.5% MH) and at slightly basic pH (pH = 8.5), after incubation for 16-20 h at 37 °C. Values represent two different duplicate MIC determinations.

[2] = test system: P. aeruginosa PAO1; assay type: cell-based, Pseudomonas aeruginosa; details: PAO1, pH 8.5
Procedure: as §1, §2, §3, §4, §5, §6
The same procedure as for the antibacterial activity measurements by minimal inhibitory concentration assay (MIC) was applied. The media, 12.5% Mueller-Hinton broth was this time supplemented with different salt concentrations (0, 100, 200 300 mM NaCl). The MIC activities were then determined against Pseudomonas aeruginosa PAO1 and Escherichia coli […]
Table S6. Minimal inhibitory concentration (MIC) on P. aeruginosa PAO1 as function of salt […]
as §7

[3] = test system: E. coli W3110, P. aeruginosa PAO1, S. aureus COL (MRSA), A. baumannii ATCC19606, K. pneumoniae NCTC418; experiment: MIC of macrocycles versus their linearized analogs (Table S4 panel); assay type: cell-based; details: Table S4, 12.5% MH pH 7.4
Procedure: as §1
as §2, with “MH). […]” for “MH).”
To determine the minimal hemolytic concentration (MHC), stock solutions of 8 mg/mL of the peptide in sterilized MilliQ water deionized were prepared and 50 μL were diluted serially by ½ in 50 μL PBS (pH 7.4) in 96-well plate (Costar or Nunc, polystyrene, untreated). […] Minimal hemolytic concentration (MHC) end points were determined by visual determination of the wells after the incubation period. […]

[4] = test system: human red blood cells; experiment: Minimal hemolytic concentration (MHC); assay type: cell-based; details: pH 7.4, 25 °C, 4 h
Procedure: as §4
Minimal Hemolytic Concentration (MHC)
To determine the minimal hemolytic concentration (MHC), stock solutions of 8 mg/mL of the peptide in sterilized MilliQ water deionized were prepared and 50 μL were diluted serially by ½ in 50 μL PBS (pH 7.4) in 96-well plate (Costar or Nunc, polystyrene, untreated). Human red blood cells (hRBC) were obtained by centrifugation of 1.5 mL of whole blood, from the blood bank of Bern, at 3000 rpm for 15 minutes at 4 °C. Plasma was discarded and the pellet was re-suspended in a 15 mL Falcon tube in 5 mL of PBS. The washing was repeated three times, and the remaining pellet was re-suspended in 10 mL of PBS at a final hRBC concentration of 5%. The hRBC suspension (50 μL) was added to each well and the plate was incubated at room temperature for 4 hours. Minimal hemolytic concentration (MHC) end points were determined by visual determination of the wells after the incubation period.
Controls on each plate included a blank medium control (50 μL PBS + 50 μL of hRBC suspension) and a hemolytic activity control t-octylphenoxypolyethoxyethanol (Triton-X100) (1 % in MilliQ-deionized water) 50 μL + 50 μL hRBC suspension).
Table S3. […]

[5] = Dansyl-polymyxin (DsPMB) displacement assay; assay type: binding, Pseudomonas aeruginosa; details: 37 °C, 2.5 µM DsPMB, LPS 3 μg/mL, emission 485 nm; mean ± SD, n = 3
Procedure: 14. Dansyl-Polymyxin (DsPMB) Displacement Assay
Saturation determination. Dansyl-polymyxin (DsPMB) in water (1.5 mg/mL) and lyophilized lipopolysaccharides from P. aeruginosa were obtained from Merck. LPS were prepared as a 1 mg/mL stock solution in mQ water and stored at 4 °C. The fluorescence saturation of DsPMB with LPS was first determined, by titration (0.25 μM increments, up to 5 μM) of the DsPMB into a 3 μg/mL of LPS (10 mM Tris, 10 mM NaCl buffer, pH 7.4), at 37 °C. The fluorescence was recorded with a Jasco spectrofluorometer FP-8300, with the excitation at λex = 340 nm (5 nm slit width) and recorded from 420 to 650 nm. The fluorescence was recorded two minutes after each addition. Saturation was graphically determined, at a concentration of D sPMB ≈ 2.5 μM (λem = 485 nm). Each measurement was determined in triplicates.
Displacement assay. The displacement effect of the various peptides was determined by measuring the reduction of fluorescence intensity, at 37 °C. Initially, DsPMB (2.5 μM) was mixed with LPS (3 μg/mL) and let it react for 15 minutes before recording the fluorescence […]
intensity (at λem = 485 nm and λex = 340 nm). Then, the peptide was titrated (1 μM increments, up to 10 μM) into the DsPMB/LPS mixture, and the fluorescence was recorded two minutes after the compound addition. The decrease in fluorescence was interpreted as the displacement of DsPMB from the LPS due to competitive binding by the peptide.[12,13] Specific Fluorescence Enhancement
Figure S8. Fluorescence emission of dansyl-polymyxin (DsPMB) in presence of lipopolysaccharide (LPS) extracted from P. aeruginosa (3 µg/mL) in TRIS/NaCl buffer (10 mM, pH 7.4). The fluorophore was excited at 340 nm (5 nm slit width) and recorded from 420 to 650 nm. The data represent mean value from three measurement. Specific fluorescence represents the emission of DsPMB with the non-specific fluorescence (no LPS) deduced.

[6] = Serum stability assay; assay type: in vitro ADME; details: human serum 12.5% in 0.1 M Tris buffer pH 7.4, 37 °C, 200 µM peptide, time points 0/1/6/10/24 h, triplicates, LC(-MS), 4-hydroxybenzoic acid internal standard
Procedure: Human serum was diluted in 0.1 M filtered TRIS buffer pH 7.4 (25%, 1:3, v/v). Selected hybrids were diluted in 0.1 M filtered TRIS buffer pH 7.4 to a concentration of 400 μM and 0.1 mg/mL of 4-hydroxybenzoic acid was added as internal standard. Aliquots of peptide solution (50 μL) were added to aliquots of serum (50 uL) in sterile Eppendorf tubes, to reach a peptide concentration of 200 μM during the assay. Samples were incubated at 37 °C under gentle stirring (350 rpm). Different samples (triplicates) were quenched at different time points (0 / 1 / 6 / 10 / 24 h) by precipitating serum proteins through the addition of 100 μL of a solution ZnSO4·7 H2O (0.05 mM) in water/ACN (1:1) and cooling in ice bath for 10 minutes.
Protein precipitates were pelleted under centrifugation (5 min at 14’000 rpm) and the supernatants were analysed by LC-MS. Experiment controls included a precipitation control for each peptide to test their resistance to the protein precipitation conditions and serum blanks to check reproducibility over different serum batches. Peaks corresponding to the internal standard and the undegraded peptides were integrated, with the ratio peptide/standard at t = 0 h as 100 % undegraded peptide.
Cell Culture Conditions. […]

Row | Compound | MIC on E. coli, 0 mM NaCl [1] [µg/mL] | MIC on E. coli, 100 mM NaCl [1] [µg/mL] | MIC on E. coli, 200 mM NaCl [1] [µg/mL] | MIC on E. coli, 300 mM NaCl [1] [µg/mL] | MIC on P. aeruginosa, 0 mM NaCl [2] [µg/mL] | MIC on P. aeruginosa, 100 mM NaCl [2] [µg/mL] | MIC on P. aeruginosa, 200 mM NaCl [2] [µg/mL] | MIC on P. aeruginosa, 300 mM NaCl [2] [µg/mL] | further results
1 | CC(C)N(CC(=O)N[C@@H](CC(N)=O)C(=O)N[C@H]1CCNC(=O)[C@H](CCCCN)NC(=O)[C@H](CC(N)=O)NC(=O)CN(CCCCN)C(=O)[C@H](CCCCN)NC(=O)[C@H](CO)NC1=O)C(=O)CN(Cc1ccccc1)C(=O)CCC1CCCCC1 [EB36] ({Propanoyl(3-cHex)}-[Nphe][N(iPr)Gly]N[Dab]SK[Nlys]NK; lactam 4-C) | 16 to 32 | > 64 | > 64 | > 64 | 32 (≈ 27 µM) | > 64 | > 64 | > 64 | –
2 | CC(C)N1CC(=O)N[C@@H](CCCCN)C(=O)N[C@@H](CO)C(=O)N[C@@H](CCCCN)C(=O)NCC[C@H](NC(=O)[C@H](CCCCN)NC(=O)[C@@H]2CCCN2C(=O)CN(CCc2ccccc2)C(=O)CCC2CCCCC2)C(=O)N[C@@H](CC(N)=O)C(=O)NCC1=O [EB37] ({Propanoyl(3-cHex)}-[Gly(NCH2CH2Ph)]PK[Dab]NG[N(iPr)Gly]KSK; lactam 4-C) | 32 (≈ 25.8 µM) | > 64 | > 64 | > 64 | 32 (≈ 25.8 µM) | > 64 | > 64 | > 64 | –
3 | CC(C)CCCCC(=O)N[C@@H](CCN)C(=O)N[C@H](C(=O)N[C@@H](CCN)C(=O)N[C@H]1CCNC(=O)[C@H]([C@@H](C)O)NC(=O)[C@H](CCN)NC(=O)[C@H](CCN)NC(=O)[C@H](CC(C)C)NC(=O)[C@@H](Cc2ccccc2)NC(=O)[C@H](CCN)NC1=O)[C@@H](C)O [PMB2, polymyxin B2] ({Heptanoyl(6-Me)}-[Dab]T[Dab][Dab][Dab][dF]L[Dab][Dab]T; lactam 4-C) | 0.25 (≈ 0.21 µM) | 0.25 (≈ 0.21 µM) | 0.25 (≈ 0.21 µM) | 0.25 (≈ 0.21 µM) | 0.5 (≈ 0.42 µM) | 0.25 (≈ 0.21 µM) | 0.25 (≈ 0.21 µM) | 0.25 (≈ 0.21 µM) | –
4 | FA4-Val-C2-A1-Ala-Lys-Gly-Lys-C3-Lys [EB13lin, linearized analog of EB13] | – | – | – | – | – | – | – | – | Loss of activity of linearized analog relative to macrocyclic parent [3]: between two‐fold and eight‐fold less active
5 | FA5-A3-Lys-Asn-Ala-Lys-H2-Lys-C3-Lys [EB12lin, linearized analog of EB12] | – | – | – | – | – | – | – | – | Loss of activity of linearized analog relative to macrocyclic parent [3]: between two‐fold and eight‐fold less active
6 | FA7-H4-C3-A6-Dab(*)-C2-Lys-Ser-Lys-C1-Lys-* (lariat or depsi) [EB33, hemolytic peptide-peptoid macrocycle, PDGA-generated PMB2 analog] | – | – | – | – | – | – | – | – | Hemolysis of red blood cells relative to PMB2 [4]: slightly more hemolytic than PMB2; Binding to lipopolysaccharide (dansyl-PMB fluorescence displacement) [5]: an even stronger signal
7 | FA10-A3-Lys-C2-Dab(*)-Asn-C2-Lys-Val-Lys-* (lariat or depsi) [EB18, peptide-peptoid macrocycle, PDGA-generated PMB2 analog] | – | – | – | – | – | – | – | – | Stability against proteolysis in human serum (undegraded peptide) [6]: did not show any significant degradation in human serum
